Source: ChEMBL document CHEMBL4414672, “Synthesis of certain benzothieno[3,2-d]pyrimidine derivatives as a selective SIRT2 inhibitors” (Eur J Med Chem, 2020)

Tests used:
Assay type in all cases: functional
Hs-578T = test: Growth inhibition of human Hs 578T cells at 10^-5 M incubated for 48 hrs by sulforhodamine B assay; details: read-out: GI
NCI-H23 = test: Growth inhibition of human NCI-H23 cells at 10^-5 M incubated for 48 hrs by sulforhodamine B assay; details: NCI-H23, 48 h, read-out: GI
HT-29 = test: Growth inhibition of human HT-29 cells at 10^-5 M incubated for 48 hrs by sulforhodamine B assay; details: HT-29, 48 h, read-out: GI
MDA-MB-231 = test: Growth inhibition of human MDA-MB-231 cells at 10^-5 M incubated for 48 hrs by sulforhodamine B assay; details: MDA-MB-231, 48 h, read-out: GI
RXF 393 = test: Growth inhibition of human RXF393 cells at 10^-5 M incubated for 48 hrs by sulforhodamine B assay; details: RXF 393, 48 h, read-out: GI
M14 = test: Growth inhibition of human M14 cells at 10^-5 M incubated for 48 hrs by sulforhodamine B assay; details: M14, 48 h, read-out: GI
MDA-MB-468 = test: Growth inhibition of human MDA-MB-468 cells at 10^-5 M incubated for 48 hrs by sulforhodamine B assay; details: MDA-MB-468, 48 h, read-out: GI
ACHN = test: Growth inhibition of human ACHN cells at 10^-5 M incubated for 48 hrs by sulforhodamine B assay; details: read-out: GI
EKVX = test: Growth inhibition of human EKVX cells at 10^-5 M incubated for 48 hrs by sulforhodamine B assay; details: read-out: GI
SN12C = test: Growth inhibition of human SN12C cells at 10^-5 M incubated for 48 hrs by sulforhodamine B assay; details: read-out: GI
NCI/ADR-RES = test: Growth inhibition of human NCI/ADR-RES cells at 10^-5 M incubated for 48 hrs by sulforhodamine B assay; details: read-out: GI
BT-549 = test: Growth inhibition of human BT549 cells at 10^-5 M incubated for 48 hrs by sulforhodamine B assay; details: BT-549, 48 h, read-out: GI
U-251 = test: Growth inhibition of human U251 cells at 10^-5 M incubated for 48 hrs by sulforhodamine B assay; details: U-251, 48 h, read-out: GI
UACC-257 = test: Growth inhibition of human UACC257 cells at 10^-5 M incubated for 48 hrs by sulforhodamine B assay; details: UACC-257, 48 h, read-out: GI
UACC-62 = test: Growth inhibition of human UACC62 cells at 10^-5 M incubated for 48 hrs by sulforhodamine B assay; details: UACC-62, 48 h, read-out: GI
OVCAR-5 = test: Growth inhibition of human OVCAR5 cells at 10^-5 M incubated for 48 hrs by sulforhodamine B assay; details: OVCAR-5, 48 h, read-out: GI
TK-10 = test: Growth inhibition of human TK10 cells at 10^-5 M incubated for 48 hrs by sulforhodamine B assay; details: TK-10, 48 h, read-out: GI
CAKI-1 = test: Growth inhibition of human Caki1 cells at 10^-5 M incubated for 48 hrs by sulforhodamine B assay; details: CAKI-1, 48 h, read-out: GI
Malme-3M = test: Growth inhibition of human MALME-3M cells at 10^-5 M incubated for 48 hrs by sulforhodamine B assay; details: read-out: GI
HCC 2998 = test: Growth inhibition of human HCC2998 cells at 10^-5 M incubated for 48 hrs by sulforhodamine B assay; details: HCC 2998, 48 h, read-out: GI
NCI-H322M = test: Growth inhibition of human NCI-H322M cells at 10^-5 M incubated for 48 hrs by sulforhodamine B assay; details: read-out: GI
IGROV-1 = test: Growth inhibition of human IGROV1 cells at 10^-5 M incubated for 48 hrs by sulforhodamine B assay; details: IGROV-1, 48 h, read-out: GI
SR = test: Growth inhibition of human SR cells at 10^-5 M incubated for 48 hrs by sulforhodamine B assay; details: read-out: GI
OVCAR-8 = test: Growth inhibition of human OVCAR8 cells at 10^-5 M incubated for 48 hrs by sulforhodamine B assay; details: OVCAR-8, 48 h, read-out: GI
PC-3 = test: Growth inhibition of human PC3 cells at 10^-5 M incubated for 48 hrs by sulforhodamine B assay; details: PC-3, 48 h, read-out: GI
MCF7 = test: Growth inhibition of human MCF7 cells at 10^-5 M incubated for 48 hrs by sulforhodamine B assay; details: MCF7, 48 h, read-out: GI
SNB-75 = test: Growth inhibition of human SNB75 cells at 10^-5 M incubated for 48 hrs by sulforhodamine B assay; details: SNB-75, 48 h, read-out: GI
DU-145 = test: Growth inhibition of human DU145 cells at 10^-5 M incubated for 48 hrs by sulforhodamine B assay; details: DU-145, 48 h, read-out: GI
K562 = test: Growth inhibition of human K562 cells at 10^-5 M incubated for 48 hrs by sulforhodamine B assay; details: K562, 48 h, read-out: GI
OVCAR-3 = test: Growth inhibition of human OVCAR3 cells at 10^-5 M incubated for 48 hrs by sulforhodamine B assay; details: OVCAR-3, 48 h, read-out: GI
NCI-H226 = test: Growth inhibition of human NCI-H226 cells at 10^-5 M incubated for 48 hrs by sulforhodamine B assay; details: NCI-H226, 48 h, read-out: GI
COLO 205 = test: Growth inhibition of human COLO205 cells at 10^-5 M incubated for 48 hrs by sulforhodamine B assay; details: COLO 205, 48 h, read-out: GI
A549 = test: Growth inhibition of human A549/ATCC cells at 10^-5 M incubated for 48 hrs by sulforhodamine B assay; details: A549, 48 h, read-out: GI
SF-268 = test: Growth inhibition of human SF268 cells at 10^-5 M incubated for 48 hrs by sulforhodamine B assay; details: SF-268, 48 h, read-out: GI
A498 = test: Growth inhibition of human A498 cells at 10^-5 M incubated for 48 hrs by sulforhodamine B assay; details: A498, 48 h, read-out: GI
SW-620 = test: Growth inhibition of human SW620 cells at 10^-5 M incubated for 48 hrs by sulforhodamine B assay; details: SW-620, 48 h, read-out: GI
HOP-92 = test: Growth inhibition of human HOP92 cells at 10^-5 M incubated for 48 hrs by sulforhodamine B assay; details: HOP-92, 48 h, read-out: GI
SK-MEL-5 = test: Growth inhibition of human SK-MEL-5 cells at 10^-5 M incubated for 48 hrs by sulforhodamine B assay; details: SK-MEL-5, 48 h, read-out: GI
SK-OV-3 = test: Growth inhibition of human SKOV3 cells at 10^-5 M incubated for 48 hrs by sulforhodamine B assay; details: SK-OV-3, 48 h, read-out: GI

SMILES	inhibition of growth at 10 µM (Hs-578T) [%]	inhibition of growth at 10 µM (NCI-H23) [%]	inhibition of growth at 10 µM (HT-29) [%]	inhibition of growth at 10 µM (MDA-MB-231) [%]	inhibition of growth at 10 µM (RXF 393) [%]	inhibition of growth at 10 µM (M14) [%]	inhibition of growth at 10 µM (MDA-MB-468) [%]	inhibition of growth at 10 µM (ACHN) [%]	inhibition of growth at 10 µM (EKVX) [%]	inhibition of growth at 10 µM (SN12C) [%]	inhibition of growth at 10 µM (NCI/ADR-RES) [%]	inhibition of growth at 10 µM (BT-549) [%]	inhibition of growth at 10 µM (U-251) [%]	inhibition of growth at 10 µM (UACC-257) [%]	inhibition of growth at 10 µM (UACC-62) [%]	inhibition of growth at 10 µM (OVCAR-5) [%]	inhibition of growth at 10 µM (TK-10) [%]	inhibition of growth at 10 µM (CAKI-1) [%]	inhibition of growth at 10 µM (Malme-3M) [%]	inhibition of growth at 10 µM (HCC 2998) [%]	also measured
O=C1/C(=C\c2ccccc2O)Sc2ccc(Cl)cc21	3.91	11.7	-12.2	11	-3.05	0.22	-4.1	2.5	13.3	5.15	6.5	-20.1	-8.52	-1.33	22.3	-0.88	-16	15.9	4.11	-25.6	inhibition of growth at 10 µM (NCI-H322M): 10.4%; inhibition of growth at 10 µM (IGROV-1): 0.45%; inhibition of growth at 10 µM (SR): 26.2%; inhibition of growth at 10 µM (OVCAR-8): 1.53%; inhibition of growth at 10 µM (PC-3): 1.43%; inhibition of growth at 10 µM (MCF7): -12.3%; inhibition of growth at 10 µM (SNB-75): 22.3%; inhibition of growth at 10 µM (DU-145): -12.3%; inhibition of growth at 10 µM (K562): 4.83%; inhibition of growth at 10 µM (OVCAR-3): -11.6%; inhibition of growth at 10 µM (NCI-H226): 4.98%; inhibition of growth at 10 µM (COLO 205): -5.97%; inhibition of growth at 10 µM (A549): -0.44%; inhibition of growth at 10 µM (SF-268): 5.86%; inhibition of growth at 10 µM (A498): 3.49%; inhibition of growth at 10 µM (SW-620): -11.4%; inhibition of growth at 10 µM (HOP-92): 3%; inhibition of growth at 10 µM (SK-MEL-5): 4.61%; inhibition of growth at 10 µM (SK-OV-3): 5.06%
Oc1ccccc1C1NC(=S)Nc2c1sc1ccc(Cl)cc21 (configuration not stated)	8.15	19.4	-1.54	27.4	2.85	7.43	8.75	8.93	19.7	9.77	9.4	-5	-5.09	-1.4	13.1	5.8	-8.34	12.9	10.7	-10.6	inhibition of growth at 10 µM (NCI-H322M): 5.31%; inhibition of growth at 10 µM (IGROV-1): 13.6%; inhibition of growth at 10 µM (SR): 16.3%; inhibition of growth at 10 µM (OVCAR-8): 5.15%; inhibition of growth at 10 µM (PC-3): 10.2%; inhibition of growth at 10 µM (MCF7): -7.9%; inhibition of growth at 10 µM (SNB-75): 21.1%; inhibition of growth at 10 µM (DU-145): -7.9%; inhibition of growth at 10 µM (K562): 8.3%; inhibition of growth at 10 µM (OVCAR-3): 4.13%; inhibition of growth at 10 µM (NCI-H226): 21.8%; inhibition of growth at 10 µM (COLO 205): -1.76%; inhibition of growth at 10 µM (A549): 5.42%; inhibition of growth at 10 µM (SF-268): 8.44%; inhibition of growth at 10 µM (A498): 23.4%; inhibition of growth at 10 µM (SW-620): -8%; inhibition of growth at 10 µM (HOP-92): 13.4%; inhibition of growth at 10 µM (SK-MEL-5): 6.32%; inhibition of growth at 10 µM (SK-OV-3): 8.48%
O=[N+]([O-])c1cccc(C2c3sc4ccc(Cl)cc4c3N=C3NN=C(c4cccc(F)c4)N32)c1 (configuration not stated)	1.64	10.1	-7.53	13.4	-16.7	-2.52	-20.8	11.4	14.8	3.42	-2.63	-8.29	-1.33	-6.09	4.06	-2.63	-12.9	21.9	-3.66	-6.34	inhibition of growth at 10 µM (NCI-H322M): 2.83%; inhibition of growth at 10 µM (IGROV-1): 21.3%; inhibition of growth at 10 µM (SR): 1.04%; inhibition of growth at 10 µM (OVCAR-8): -1.43%; inhibition of growth at 10 µM (PC-3): 7.25%; inhibition of growth at 10 µM (MCF7): 24.4%; inhibition of growth at 10 µM (SNB-75): 6.3%; inhibition of growth at 10 µM (DU-145): 11.3%; inhibition of growth at 10 µM (K562): 6.99%; inhibition of growth at 10 µM (OVCAR-3): -1.54%; inhibition of growth at 10 µM (NCI-H226): 14%; inhibition of growth at 10 µM (COLO 205): -6.34%; inhibition of growth at 10 µM (A549): 2.2%; inhibition of growth at 10 µM (SF-268): 2.25%; inhibition of growth at 10 µM (A498): 0.64%; inhibition of growth at 10 µM (SW-620): -3.74%; inhibition of growth at 10 µM (HOP-92): -18%; inhibition of growth at 10 µM (SK-MEL-5): 4.01%; inhibition of growth at 10 µM (SK-OV-3): 6.58%
